From patent publication US20240368214A1, “POSITIVE NMDA-MODULATING COMPOUNDS AND METHODS OF USE THEREOF” (SAGE THERAPEUTICS, INC., priority 2021, published 2024)
Where two headings read alike, the source gives them in different places.

Target: T1, recombinant human GluN1/GluN2A receptor (Homo sapiens, UniProt Q05586+Q12879)
T1 construct: expressed in transfected cells; host or cells: HEK293, tetracycline-inducible expression
Assay: Whole-cell patch clamp of mammalian cells (Syncropatch 384i), NMDA modulation
Format: cell-based
Details: HEK293 cells, human GluN1/GluN2A, glutamate 1 μM / glycine 100 μM, -80 mV, peak amplitude increase; for EC50: read-out: EC50
Summary of the method: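 Modulation read as fold rise in peak current, (Icomp/Icontrol)−1, from 8 concentrations with ≥2 wells each, four-parameter fit. Compound pre-incubated 120 s then co-applied with 1 μM glutamate plus 100 μM glycine; tetracycline-inducible HEK293 GluN1/GluN2A cells clamped at −80 mV.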

T1 sequence (Q12879 23-1464, other chains not shown): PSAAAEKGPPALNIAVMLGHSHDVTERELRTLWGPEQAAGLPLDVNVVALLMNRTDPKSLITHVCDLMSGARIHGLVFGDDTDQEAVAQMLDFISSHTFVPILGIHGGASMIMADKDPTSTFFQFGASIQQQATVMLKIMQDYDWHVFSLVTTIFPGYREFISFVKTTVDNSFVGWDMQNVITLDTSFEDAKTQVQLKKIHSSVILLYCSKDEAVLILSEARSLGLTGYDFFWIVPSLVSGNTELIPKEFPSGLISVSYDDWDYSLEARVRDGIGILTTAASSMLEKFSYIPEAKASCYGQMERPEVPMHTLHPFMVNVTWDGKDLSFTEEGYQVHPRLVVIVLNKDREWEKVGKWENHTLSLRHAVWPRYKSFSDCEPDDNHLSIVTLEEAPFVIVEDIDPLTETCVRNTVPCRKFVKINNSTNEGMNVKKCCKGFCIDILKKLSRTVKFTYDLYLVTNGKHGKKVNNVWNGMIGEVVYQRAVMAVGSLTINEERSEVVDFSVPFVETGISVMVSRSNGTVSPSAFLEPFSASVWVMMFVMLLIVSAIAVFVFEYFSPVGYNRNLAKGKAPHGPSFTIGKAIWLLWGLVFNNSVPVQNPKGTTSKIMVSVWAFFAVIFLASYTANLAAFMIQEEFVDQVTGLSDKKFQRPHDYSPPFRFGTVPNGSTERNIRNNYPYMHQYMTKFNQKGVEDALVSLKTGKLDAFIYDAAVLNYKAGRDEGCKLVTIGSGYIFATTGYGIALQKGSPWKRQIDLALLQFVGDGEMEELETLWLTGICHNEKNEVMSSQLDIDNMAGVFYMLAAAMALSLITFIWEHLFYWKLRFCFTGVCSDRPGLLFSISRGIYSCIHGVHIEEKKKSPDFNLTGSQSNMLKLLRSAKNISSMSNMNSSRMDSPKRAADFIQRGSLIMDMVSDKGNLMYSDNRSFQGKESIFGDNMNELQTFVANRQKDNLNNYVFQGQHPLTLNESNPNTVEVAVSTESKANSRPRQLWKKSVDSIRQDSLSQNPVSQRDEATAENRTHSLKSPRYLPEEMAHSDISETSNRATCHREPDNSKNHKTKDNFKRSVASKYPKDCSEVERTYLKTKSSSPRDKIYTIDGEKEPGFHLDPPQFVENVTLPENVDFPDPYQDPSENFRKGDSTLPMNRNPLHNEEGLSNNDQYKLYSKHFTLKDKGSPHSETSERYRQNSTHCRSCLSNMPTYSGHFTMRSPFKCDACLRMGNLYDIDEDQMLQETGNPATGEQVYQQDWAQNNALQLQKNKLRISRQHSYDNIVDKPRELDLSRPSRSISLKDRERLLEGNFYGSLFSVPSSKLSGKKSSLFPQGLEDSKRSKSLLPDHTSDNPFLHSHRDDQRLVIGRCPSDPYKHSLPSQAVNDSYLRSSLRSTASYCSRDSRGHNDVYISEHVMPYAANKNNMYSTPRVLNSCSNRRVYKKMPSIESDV

Emax (Table D-2)	EC50 (Table D-2)	Compound	Emax (Table E-2)	EC50 (Table E-2)
100 to 200%	1 to 100 nM	CC[C@]1(O)CCC[C@@]2(C)[C@@H](CC[C@@H]3[C@@H]2CC[C@]2(C)[C@@H]([C@H](C)CC[C@](C)(O)C(F)(F)F)CC[C@@H]32)C1 [Compound D-7, (1R,3aS,3bR,5aS,7S,10aS,10bS,12aR)-7-ethyl-10a,12a-dimethyl-1-((2R,5S)-6,6,6-trifluoro-5-hydroxy-5-methylhexan-2-yl)octadecahydrocyclohepta[a]cyclopenta[f]naphthalen-7-ol]	–	–
100 to 200%	100 to 500 nM	CC[C@]1(O)CCC[C@@]2(C)C(=CC[C@H]3[C@@H]4CC[C@H]([C@H](C)CCC(C)(C)O)[C@@]4(C)CC[C@@H]32)C1 [Compound D-9, (1R,3aS,3bS,7S,10aR,10bS,12aR)-7-ethyl-1-((R)-5-hydroxy-5-methylhexan-2-yl)-10a,12a-dimethyl-1,2,3,3a,3b,4,6,7,8,9,10,10a,10b,11,12,12a-hexadecahydrocyclohepta[a]cyclopenta[f]naphthalen-7-ol]	–	–
–	> 1000 nM	C[C@H](CC[C@](C)(O)C(F)(F)F)[C@H]1CC[C@H]2[C@@H]3CC=C4C[C@](C)(O)CCC[C@]4(C)[C@H]3CC[C@]12C [Compound D-14, (1R,3aS,3bS,7R,10aR,10bS,12aR)-7,10a,12a-trimethyl-1-((2R,5S)-6,6,6-trifluoro-5-hydroxy-5-methylhexan-2-yl)-1,2,3,3a,3b,4,6,7,8,9,10,10a, 10b, 11,12,12a-hexadecahydrocyclohepta[a]cyclopenta[f]naphthalen-7-ol]	–	–
< 100%	100 to 500 nM	C[C@H](CC[C@](C)(O)C(F)(F)F)[C@H]1CC[C@H]2[C@@H]3CC=C4C[C@@](C)(O)CCC[C@]4(C)[C@H]3CC[C@]12C [Compound D-15, (1R,3aS,3bS,7S,10aR,10bS,12aR)-7,10a,12a-trimethyl-1-((2R,5S)-6,6,6-trifluoro-5-hydroxy-5-methylhexan-2-yl)-1,2,3,3a,3b,4,6,7,8,9,10,10a,10b,11,12,12a-hexadecahydrocyclohepta[a]cyclopenta[f]naphthalen-7-ol]	–	–
< 100%	> 1000 nM	CC[C@@]1(O)CCC[C@@]2(C)C(=CC[C@H]3[C@@H]4CC[C@H]([C@H](C)CC[C@](C)(O)C(F)(F)F)[C@@]4(C)CC[C@@H]32)C1 [Compound D-16, (1R,3aS,3bS,7R,10aR,10bS,12aR)-7-ethyl-10a,12a-dimethyl-1-((2R,5S)-6,6,6-trifluoro-5-hydroxy-5-methylhexan-2-yl)-1,2,3,3a,3b,4,6,7,8,9,10,10a,10b,11,12,12a-hexadecahydrocyclohepta[a]cyclopenta[f]naphthalen-7-ol]	–	–
100 to 200%	100 to 500 nM	CC[C@]1(O)CCC[C@@]2(C)C(=CC[C@H]3[C@@H]4CC[C@H]([C@H](C)CC[C@](C)(O)C(F)(F)F)[C@@]4(C)CC[C@@H]32)C1 [Compound D-17, (1R,3aS,3bS,7S,10aR,10bS,12aR)-7-ethyl-10a,12a-dimethyl-1-((2R,5S)-6,6,6-trifluoro-5-hydroxy-5-methylhexan-2-yl)-1,2,3,3a,3b,4,6,7,8,9,10,10a,10b,11,12,12a-hexadecahydrocyclohepta[a]cyclopenta[f]naphthalen-7-ol]	–	–
–	–	CC[C@]1(O)CC[C@]2(C)C3=CC[C@]4(C)[C@@H]([C@H](C)CCCC(C)(C)O)CC[C@H]4[C@@H]3CC[C@H]2C1 [Compound E-1, (3S,5S,8S,10S,13R,14S,17R)-3-ethyl-17-((R)-6-hydroxy-6-methylheptan-2-yl)-10,13-dimethyl-2,3,4,5,6,7,8,10,12,13,14,15,16,17-tetradecahydro-1H-cyclopenta[a]phenanthren-3-ol]	< 100%	1 to 100 nM
–	–	CC[C@]1(O)CC[C@]2(C)C3=CC[C@]4(C)[C@@H]([C@H](C)CC[C@@](C)(O)C(F)(F)F)CC[C@H]4[C@@H]3CC[C@H]2C1 [Compound E-2, (3S,5S,8S,10S,13R,14S,17R)-3-ethyl-10,13-dimethyl-17-((2R,5R)-6,6,6-trifluoro-5-hydroxy-5-methylhexan-2-yl)-2,3,4,5,6,7,8,10,12,13,14,15,16,17-tetradecahydro-1H-cyclopenta[a]phenanthren-3-ol]	> 200%	100 to 500 nM
–	–	CC[C@]1(O)CC[C@]2(C)C3=CC[C@]4(C)[C@@H]([C@H](C)CC[C@](C)(O)C(F)(F)F)CC[C@H]4[C@@H]3CC[C@H]2C1 [Compound E-3, (3S,5S,8S,10S,13R,14S,17R)-3-ethyl-10,13-dimethyl-17-((2R,5S)-6,6,6-trifluoro-5-hydroxy-5-methylhexan-2-yl)-2,3,4,5,6,7,8,10,12,13,14,15,16,17-tetradecahydro-1H-cyclopenta[a]phenanthren-3-ol]	> 200%	1 to 100 nM
–	–	CC[C@]1(O)CC[C@]2(C)C3=CC[C@]4(C)[C@@H]([C@H](C)CC[C@@H](O)C(C)C)CC[C@H]4[C@@H]3CC[C@H]2C1 [Compound E-4, (3S,5S,8S,10S,13R,14S,17R)-3-ethyl-17-((2R,5R)-5-hydroxy-6-methylheptan-2-yl)-10,13-dimethyl-2,3,4,5,6,7,8,10,12,13,14,15,16,17-tetradecahydro-1H-cyclopenta[a]phenanthren-3-ol]	> 200%	1 to 100 nM
–	–	CC[C@]1(O)CC[C@]2(C)C3=CC[C@]4(C)[C@@H]([C@H](C)CCC(C)(C)O)CC[C@H]4[C@@H]3CC[C@H]2C1 [Compound E-5, (3S,5S,8S,10S,13R,14S,17R)-3-ethyl-17-((R)-5-hydroxy-5-methylhexan-2-yl)-10,13-dimethyl-2,3,4,5,6,7,8,10,12,13,14,15,16,17-tetradecahydro-1H-cyclopenta[a]phenanthren-3-ol]	100 to 200%	1 to 100 nM
–	–	CC[C@]1(O)CC[C@]2(C)C3=CC[C@]4(C)[C@@H]([C@H](C)CCC5(O)CCCC5)CC[C@H]4[C@@H]3CC[C@H]2C1 [Compound E-6, (3S,5S,8S,10S,13R,14S,17R)-3-ethyl-17-((R)-4-(1-hydroxycyclopentyl)butan-2-yl)-10,13-dimethyl-2,3,4,5,6,7,8,10,12,13,14,15,16,17-tetradecahydro-1H-cyclopenta[a]phenanthren-3-ol]	> 200%	1 to 100 nM
–	–	CC[C@]1(O)CC[C@]2(C)C3=CC[C@]4(C)[C@@H]([C@H](C)CCC5(O)CC5)CC[C@H]4[C@@H]3CC[C@H]2C1 [Compound E-7, (3S,5S,8S,10S,13R,14S,17R)-3-ethyl-17-((R)-4-(1-hydroxycyclopropyl)butan-2-yl)-10,13-dimethyl-2,3,4,5,6,7,8,10,12,13,14,15,16,17-tetradecahydro-1H-cyclopenta[a]phenanthren-3-ol]	> 200%	100 to 500 nM
–	–	CC[C@]1(O)CC[C@]2(C)C3=CC[C@]4(C)[C@@H]([C@H](C)CC[C@@]5(O)CCOC5)CC[C@H]4[C@@H]3CC[C@H]2C1 [Compound E-8, (R)-3-((R)-3-((3S,5S,8S,10S,13R,14S,17R)-3-ethyl-3-hydroxy-10,13-dimethyl-2,3,4,5,6,7,8,10,12,13,14,15,16,17-tetradecahydro-1H-cyclopenta[a]phenanthren-17-yl)butyl)tetrahydrofuran-3-ol]	> 200%	1 to 100 nM
–	–	CC[C@]1(O)CC[C@]2(C)C3=CC[C@]4(C)[C@@H]([C@H](C)CC[C@]5(O)CCOC5)CC[C@H]4[C@@H]3CC[C@H]2C1 [Compound E-9, (S)-3-((R)-3-((3S,5S,8S,10S,13R,14S,17R)-3-ethyl-3-hydroxy-10,13-dimethyl-2,3,4,5,6,7,8,10,12,13,14,15,16,17-tetradecahydro-1H-cyclopenta[a]phenanthren-17-yl)butyl)tetrahydrofuran-3-ol]	> 200%	1 to 100 nM
–	–	C[C@H](CCCO)[C@H]1CC[C@H]2[C@@H]3CC[C@H]4C[C@@](C)(O)CC[C@]4(C)C3=CC[C@]12C [Compound E-10, (3S,5S,8S,10S,13R,14S,17R)-17-((R)-5-hydroxypentan-2-yl)-3,10,13-trimethyl-2,3,4,5,6,7,8,10,12,13,14,15,16,17-tetradecahydro-1H-cyclopenta[a]phenanthren-3-ol]	< 100%	1 to 100 nM
–	–	CC(C)[C@H](O)CC[C@@H](C)[C@H]1CC[C@H]2[C@@H]3CC[C@H]4C[C@@](C)(O)CC[C@]4(C)C3=CC[C@]12C [Compound E-11, (3S,5S,8S,10S,13R,14S,17R)-17-((2R,5R)-5-hydroxy-6-methylheptan-2-yl)-3,10,13-trimethyl-2,3,4,5,6,7,8,10,12,13,14,15,16,17-tetradecahydro-1H-cyclopenta[a]phenanthren-3-ol]	100 to 200%	1 to 100 nM
–	–	CC(C)[C@@H](O)CC[C@@H](C)[C@H]1CC[C@H]2[C@@H]3CC[C@H]4C[C@@](C)(O)CC[C@]4(C)C3=CC[C@]12C [Compound E-12, (3S,5S,8S,10S,13R,14S,17R)-17-((2R,5S)-5-hydroxy-6-methylheptan-2-yl)-3,10,13-trimethyl-2,3,4,5,6,7,8,10,12,13,14,15,16,17-tetradecahydro-1H-cyclopenta[a]phenanthren-3-ol]	100 to 200%	1 to 100 nM
